{
  "source": "patent US20160213777A1",
  "about": "“Novel Delivery Compositions and Methods of Using Same” (THOMAS JEFFERSON UNIVERSITY, priority 2013, published 2016)",
  "key": {"A549 cells [1]": {"tested_on": "A549 cells", "assay": "Cytotoxicity MTT assay of siRNA/nanoparticle formulations and erlotinib", "assay_type": "cell-based", "procedure": "MTT assay was used to determine the effect of siG12S loaded nanoparticles on the proliferation of A549 cells. Chemosensitivity of siG12S-treated cells to erlotinib was also assessed. Cells (1×10^4 per well) were seeded in 96 well plates and incubated at 37° C. in a humidified atmosphere with 5% carbon dioxide for 24 h. The cells were then treated with different formulations of nanoparticles, siG12S and erlotinib. Cells were incubated for 72 h. 10 μL of 12 Mm MTT reagent were then added to each well. This was then incubated at 37° C. for 4 h. The medium was aspirated and 50 μL of sterile DMSO was added to each well and mixed thoroughly with pipet. The cells were then incubated at 37° C. for 10 min. The plate was read at 540 and 650 nm."}, "[2]": {"conditions": "in water; cited from earlier work"}, "MRC-5 cells": {"tested_on": "MRC-5 cells", "assay": "Uptake/internalization of FITC-labeled bevacizumab particles (flow cytometry, fluorescence microscopy)", "assay_type": "cell-based", "conditions": "100 μg/mL FITC-labeled particles, 60 min", "procedure": "(§1) A549 and MRC-5 cells (2×10^4 cells/well) were seeded in 8 well coated glass slides and incubated for 48 h. […] Cells were washed with PBS, fixed with 2% paraformaldehyde, and incubated at room temperature for 20 min. PBS washed cells were then blocked with 5% BSA for 30 min at room temperature. Cells were stained with AlexaFluoro-555 labeled wheat germ agglutinin (WGA) and 4′,6-diamidino-2-phenylindole (DAPI) to visualize plasma membrane and nucleus respectively. Cells were mounted and observed under a Leica DMI 6000B fluorescence microscope (Leica Microsystems, Exton, Pa.).\nAbout 1 million cells/well were seeded in a 12 well plate and incubated for 48 h. […] The cells were trypsinized and centrifuged at 300 g for 5 min, and the pellet was washed and resuspended in 0.4% trypan blue (TB) solution in PBS to quench the extracellular FITC fluorescence. TB, while quenching the FITC fluorescence of non-internalized particles, causes them to fluoresce red whereas an internalized particle will fluoresce green. […] The samples were then analyzed by flow cytometry (BDFACS caliber). 10,000 cells were measured in each sample. […]\nA549 and MRC-5 cell lines were incubated with FITC-labeled nanoparticles for 15 and 60 minutes. The cells were then washed with D-PBS and extracellular florescence was quenched with trypan blue so that only internalized cells were analyzed. 10,000 cells were measured in each sample."}, "[3]": {"assay": "Far-UV circular dichroism, secondary structure estimated with K2D2", "assay_type": "physicochemical", "conditions": "bevacizumab particles reconstituted in acetate buffer; K2D2 estimate", "procedure": "CD measurements were performed with Jasco J-810 Spectropolarimeter (Jasco, Md., USA) operating at 20° C. using 0.5 mg/ml of reconstituted solutions of IgG nanoparticles in acetate buffer. CD spectra were obtained in the far UV region (260-190 nm) using a quartz cell of 0.1 path length in order to probe the stability of the secondary structure of the manufactured nanoparticles. A scanning speed of 50 nm/min with a 0.5-second response time was applied followed by five accumulations for each sample. The experiment was repeated in triplicate for each sample. Surfactants dissolved in the acetate buffer at corresponding concentrations were used as blanks. Signals from blanks were subtracted from sample signals. The CD signals were converted to mean residue weight ellipticity and the percentage of the secondary structure retained was estimated using the K2D2 software.\nFar UV CD was used to probe for perturbations in the secondary structure of the antibodies following reconstitution in acetate buffer (pH 6). This was done to test whether the secondary structure of the antibodies was still intact, as major perturbation in the secondary structure of proteins may lead to loss or reduction of biological activity."}, "[4]": {"assay": "Scanning electron microscopy (SEM) particle size estimate", "assay_type": "physicochemical", "from_the_text": "The morphology of the manufactured nanoparticles and the unprocessed IgG was observed by scanning electron microscopy using the Zeiss Supra 50VP system (Zeiss, Germany). Powders were mounted onto aluminum stubs using double sided adhesive tape and were made electrically conductive by coating in a thin layer of gold. The coated samples were then examined under microscope operated at an acceleration voltage of 5 kV."}, "A549 cells [5]": {"tested_on": "A549 cells", "assay": "Cytotoxicity MTT assay of bevacizumab particles", "assay_type": "cell-based", "conditions": "72 h", "procedure": "Cells (1×10^4 cells/well) were seeded in 96 well plates and incubated at 37° C. in a humidified air atmosphere with 5% carbon dioxide for 48 h. […] At the end of incubation (after 72 h), MTT reagent was added to each well and incubated for 3 h.\nThe medium was aspirated, and 100 μL of DMSO was added. The plate was read at 560 nm. Cells treated with DMSO and relevant surfactants were used as a control.\nThe control contained the appropriate concentrations of the relevant surfactant. (FIGS. 16-18)."}, "[6]": {"assay": "Photon correlation spectroscopy (PCS): particle size and zeta potential, bevacizumab nanoparticles", "assay_type": "physicochemical", "conditions": "5 mg/ml bevacizumab solution", "procedure": "Particle size (by intensity) and zeta potential measurements were performed by PCS using Zetasizer Nano ZS (Malvern Instruments, U.K.). The pellets formed after centrifugation at 6,500 rpm for 5 min were thoroughly rinsed and resuspended in deionized water by vortexing. The samples were then sonicated for approximately 5 min. Intensity autocorrelation was measured at a scattering angle (θ) of 173° at 25° C. The Z-average and polydispersity index (PDI) were recorded in triplicate. For zeta potential measurement, the samples were loaded into a universal dip cell (Malvern Instruments, U.K.) before recording the zeta potential in triplicate.\nThe surfactants seemed to have a concentration-dependent influence on the size and zeta potential of the nanoparticles. […] According to the Manufacturer's Manual, PCS is based on Brownian motion and particles with size above 10 μm tend to quickly sediment. In certain embodiments, under these circumstances, size recorded by the instrument may be due to artifact. […] For surfactant controls, distinct concentrations of the surfactants used in the nanoprecipitation process were dissolved in 0.01 N HCl and titrated with 0.1 N NaOH up to pH 8.4. In the case of nanoparticles, an increase in size was observed as the concentration of the non-ionic surfactant in the precipitation medium increased."}, "A549 cells [7]": {"tested_on": "A549 cells", "assay": "Uptake/internalization of FITC-labeled bevacizumab particles (flow cytometry, fluorescence microscopy)", "assay_type": "cell-based", "conditions": "100 μg/mL FITC-labeled particles, 60 min", "procedure": "as §1\nAbout 1 million cells/well were seeded in a 12 well plate and incubated for 48 h. […] The cells were trypsinized and centrifuged at 300 g for 5 min, and the pellet was washed and resuspended in 0.4% trypan blue (TB) solution in PBS to quench the extracellular FITC fluorescence. TB, while quenching the FITC fluorescence of non-internalized particles, causes them to fluoresce red whereas an internalized particle will fluoresce green. […] The samples were then analyzed by flow cytometry (BDFACS caliber). 10,000 cells were measured in each sample.\nMean fluorescence intensity obtained from this experiment was compared to that obtained when the A549 cells were treated with 100 μg/mL FITC-labeled bavacizumab nanoparticles alone. […]"}, "serum nuclease": {"tested_on": "serum nuclease", "assay": "siRNA stability in serum (50% FBS, gel electrophoresis)", "assay_type": "in vitro ADME", "conditions": "37° C., up to 48 h", "procedure": "IgG-poloxamer-188 nanoparticles (IP-nanoparticles) loaded with siG12S, IgG nanoparticles loaded with siG12S and naked siG12S were incubated in F12K medium containing 50% FBS at 37° C. Aliquots of 5 μl samples were taken at time points up to 48 h. Samples were immediately mixed with 2% SDS, and 5 μl TBE urea sample buffer. The mixture was then heated at 70° C. for 3 minutes in order to deactivate the nuclease enzyme in the serum. The integrity of the siRNA was then analyzed using 15% TBE-ureal gel. siRNA bands were visualized by ethidium bromide staining.\nSerum stability was assessed by incubating the naked siRNA and siRNA-loaded nanoparticles in 50% serum and the integrity of the siRNA assessed using gel electrophoresis at different time points. FIG. 41 illustrates the finding that naked siRNA was intact immediately after incubation but degraded after 1 h. In contrast, siRNA in IP nanoparticles was intact after 48 h. siRNA in IgG-nanoparticles was also intact up to 24 h. However, IgG-nanoparticles were not able to protect the siRNA after 24 h."}, "KRAS": {"tested_on": "KRAS", "assay": "In vitro gene silencing, western blot analysis", "assay_type": "cell-based", "conditions": "A549 cells, 50 nM siRNA, 96 h", "procedure": "A549 cells were transfected 24 h after seeding in a 6-well plate at density of 2×10^5/well. Naked siG12S and control siRNA (Thermal Scientific, Amarillo, Tex.) were transfected with lipofectamine RNAimax transfection reagent (Invitrogen). siRNA-loaded IP and IgG nanoparticles were incubated with the cells at 37° C. in a humidified air environment with 5% carbon dioxide for 96 h. The total concentration of siRNA used in all experiments was 50 nM.\nCells were washed twice with ice-cold PBS and then lysed in M-Per mammalian lysis buffer (Thermo Scientific). The protein concentration of the lysates was determined with the Bradford reagent (Bio Rad), and equal amounts of protein were subjected to SDS-PAGE using a 10% gel. Separated proteins were transferred to a nitrocellulose membrane, which was then exposed to 5% nonfat dried milk in TBS containing 0.1% Tween 20 (0.1% TBST) for 1 h at room temperature and incubated overnight at 4° C. with antibodies against KRAS (Abcam, Cambridge, Mass.) or actin (Sigma). The membranes were then washed with 0.1% TBST before being incubated with horseradish peroxidase-conjugated goat antibodies to rabbit (Santa Cruz Biotechnology). Immune complexes were detected with chemiluminescence reagents (Perkin-Elmer Life Science)."}, "IL-6": {"tested_on": "IL-6", "assay": "Immunogenicity and inflammatory reaction in murine macrophages (ELISA)", "assay_type": "cell-based", "conditions": "RAW 264.7, 24 h", "procedure": "(§2) RAW 264.7 murine macrophage cells were seeded in a 96 well plate at a density of 1.5×10^5/well at 37° C. in humidified air with 5% carbon dioxide for 24 h. The cells were then treated with 100 μg/mL of LPS, naked siG12S, siG12S-loaded IP-nanoparticles, siG12S-loaded IgG-nanoparticles and culture medium seperately for 24 h. TNF-α and IL-6 concentrations in supernatant from cultured cells were analyzed using the respective ELISA kit according to the manufacturer's instructions."}, "TNF-α": {"tested_on": "TNF-α", "assay": "Immunogenicity and inflammatory reaction in murine macrophages (ELISA)", "assay_type": "cell-based", "conditions": "RAW 264.7, 24 h", "procedure": "as §2"}},
  "data": [
    {"molecule": "C#Cc1cccc(Nc2ncnc3cc(OCCOC)c(OCCOC)cc23)c1", "note": "[erlotinib]", "values": [
      {"measurement": "sensitivity of A549 cells to erlotinib", "setting": "A549 cells [1]; alone or with siG12S (50 nM)-loaded IP nanoparticles", "result": "resistant"}
    ]},
    {"molecule": "Polyoxyethylene (20) sorbitan monolaurate [Tween 20]", "values": [
      {"measurement": "critical micelle concentration (CMC)", "setting": "[2]", "result": 0.0075, "unit": "%"}
    ]},
    {"molecule": "Polyoxyethylene (80) sorbitan monooleate [Tween 80]", "values": [
      {"measurement": "critical micelle concentration (CMC)", "setting": "[2]", "result": 0.0017, "unit": "%"}
    ]},
    {"molecule": "bevacizumab [Unprocessed bevacizumab]", "values": [
      {"measurement": "internalization by MRC-5 cells", "setting": "MRC-5 cells", "result": "not internalized"},
      {"measurement": "% alpha helix", "setting": "[3]", "result": 7.52, "unit": "%"},
      {"measurement": "% β-sheet", "setting": "[3]", "result": 32.19, "unit": "%"},
      {"measurement": "particle size estimated from SEM", "setting": "[4]", "result": "approximately 20 μm"},
      {"measurement": "IC50", "setting": "A549 cells [5]", "result": "~1800", "unit": "nM"},
      {"measurement": "Zeta potential (mV)", "setting": "[6]", "result": "−4.6 ± 0.3", "unit": "mV"},
      {"measurement": "internalization by A549 cells", "setting": "A549 cells [7]", "result": "not internalized"}
    ]},
    {"molecule": "naked siG12S: siRNA against mutated KRAS G12S; sense GUUGGAGCUAGUGGCGUAGdTdT (SEQ ID NO:1), antisense SEQ ID NO:2 (sense GUUGGAGCUAGUGGCGUAGNN; antisense CUACGCCACUAGCUCCAACNN; dTdT overhangs, chemistry not fully specified)", "values": [
      {"measurement": "time siRNA remained intact in serum", "setting": "serum nuclease", "result": "< 1", "unit": "h"},
      {"measurement": "KRAS expression (knockdown)", "setting": "KRAS", "result": "major reduction in KRAS expression"},
      {"measurement": "growth of A549 cells", "setting": "A549 cells [1]; 50 nM siRNA, 72 h", "result": "did not inhibit the growth"},
      {"measurement": "production of IL-6", "setting": "IL-6", "result": "upgraded the production"},
      {"measurement": "production of TNF-α", "setting": "TNF-α", "result": "upgraded the production"}
    ]},
    {"molecule": "polyethylene glycol monooleyl ether [Brij 97]", "values": [
      {"measurement": "critical micelle concentration (CMC)", "setting": "[2]", "result": 0.029, "unit": "%"}
    ]}
  ]
}
